System: mouse liver microsomes + NADPH, LC-MS/MS % remaining
Assay: Inhibitors of N370S glucocerebrosidase as a Potential Chaperone Treatment of Gaucher Disease: Metabolic Stability Profile with NADPH
Conditions: at 5 µM; higher = more stable (active)
Description: Glucocerebrosidase (GC) catalyzes the hydrolysis of beta-glucocerebroside to glucose and ceramide in lysosomes. Mutations in the glucocerebrosidase gene result in Gaucher disease, an autosomal recessive lysosomal storage disorder. Many of the mutations encountered in patients with Gaucher disease are missense alterations that may cause misfolding, decreased stability and/or mistrafficking of this lysosomal protein. […] These inhibitors include iminosugar analogs and three non-iminosugar inhibitors identified from a previous HTS of 62,000 compounds with the wild type recombinant enzyme. After further testing a probe has been identified and was characterized though AMDE tests. Mouse liver microsomes are created through broken up endoplasmic reticulum from mouse liver. These liver microsomes contain many drug metabolizing enzymes, such as Cytochome P-450s and flavin-containing monooxygenases. […] NIH Chemical Genomics Center [NCGC] NIH Molecular Libraries Probe Production Centers Network [MLPCN] MLPCN Grant: MH086442-01 Assay Submitter (PI): Wei Zheng
5uM of compound is incubated with mouse liver microsome in the presence of NADPH; the reference compounds are verapamil and warfarin. Compounds are incubated and samples are analyzed with LC-MS/MS.

percent remaining: 58%
SMILES: S=C(NCCCc1cnc[nH]1)NCCCN(Cc1ccc(Cl)c(Cl)c1)c1ccc(Br)cn1

Reference: PubChem BioAssay AID504746 (National Center for Advancing Translational Sciences (NCATS), 2011)
